Laboratory results as given in US11168052B2, “Carbamate derivative compounds, processes for preparing them and their uses” (BIO-PHARM SOLUTIONS CO., LTD., priority 2016, dated 2021).

Key:
[1] = test system: CFA-induced pain model in rats; test: Antiallodynic activity on Complete Freund's Adjuvant (CFA)-induced inflammatory pain model; assay type: in vivo, Sprague-Dawley rats; conditions: Rattus norvegicus, ip, 50 mg/kg intraperitoneally, von Frey threshold relative to sham, 0.5 hr after administration, read-out: Efficacy of 50 mg/kg(%)
Outline: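 Male Sprague-Dawley rats given 100 ul CFA intraplantar in the right hind paw; one week later, ipsilateral mechanical allodynia (baseline threshold <4 g required) assessed with von Frey up-and-down method, 50% withdrawal threshold by Dixon formula. Compounds 50 mg/kg i.p. in 30% PEG or 20% Tween 80, tested 0.5 h post-dose; values as % of sham.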

ICR mice on hot plate = test: Hot-plate test; assay type: in vivo; conditions: Mus musculus, po, orally, withdrawal latency
Description: To examine the pain relief effect of the carbamate compounds, a hot-plate test was conducted in referring to Current Protocols in Neuroscience; Behavioral Neuroscience Unit 8.9.
ICR mice (male, 25-28 g; Orient Bio, Korea) were habituated before test (in test room) for 1 hour. Animals were fasted 2 hr before administration of compounds. Compounds were orally administered at the three dose, 10 ul/g, by bodyweight (n=4-6/group). All compounds were dissolved in a vehicle of 30% (v/v) PEG 400 or 20% (v/v) Tween 80. The control group was treated the vehicle without compounds.
0.25-2.0 hr after the administration of compounds, the mice were put on a hot plate pre-heated to 55±1 (Hu, X. et al, 2008), and then, the withdrawal latency time was measured (cut-off time: 30 sec) until the point when each mouse was taking a paw off from the plate, shaking, licking a paw or hind leg, or jumping from the plate.

[2] = test system: Picrotoxin (PIC)-induced clonic seizure in mice; test: Chemical induced seizure model (PIC); assay type: in vivo, ICR mice
Description: Picrotoxin (PIC) were used to induce the behavioral seizures in the experiments. Male ICR mice (purchased from Orient Bio Inc. Korea) of body weight 19-26 g (mice) were used for these studies. The test materials were administered intraperitoneal (ip) route in a volume of 10 ul/g (mice) weight in rats or mice, respectively. Pharmacological effects of the test materials were evaluated to compared test groups (n=6) with a control group (n=6). Control group was administrated vehicle, only. The peak time was determined by administration of test material's random dose for 0.5, 1, 2, 4 hour. The time that the most protect was defined as a peak time and ED50 was determined by other dose administration at the peak time. Chemical (PIC) was dissolved in 0.9% saline and administered subcutaneously (s.c.) at its CD97 (convulsive dose 97%), the dose of Chemical (PIC) that produced clonic seizures in 97% into a loose fold of skin in the midline of the neck in a volume of 10 ul/g (mice) body weight. The animals were then transferred to observation cages and observed continuously for 45 min. Clonic seizure was elicited in approximately 97% of control group. Protection was defined as a complete absence of clonic seizure over the 45-min observation period. The effective dose of compound necessary to protect against generalized convulsive seizures to 50% of controls (i.e., ED50) was determined by log probit analysis using SPSS software program (SPSS Inc.). (Reference; White H. S., J. H. Woodhead, K. S. Wilcox, J. P. Stables, H. J. Kupferberg, and H. H. Wolf. General Principles; Discovery and Preclinical Development of Antiepileptic Drugs. In: R. H. Levy, R. H. Mattson, B. S. Meldrum, and E. Perucca, eds. Antiepileptic Drugs, 5th Ed. Lippincott Williams & Wilkins, Philadelphia 2002: pp. 36-48.) The obtained results are shown in following Table 10.

NC(=O)O[C@@H]1c2c(Cl)cccc2CC[C@@H]1O [Example 19, (1R, 2S)-8-chloro-2-hydroxy-1,2,3,4-tetrahydronaphthalen-1-yl carbamate]
response vs control in vivo at 50 mg/kg [1]: 51.6%
ED50 (ICR mice on hot plate): > 100 mg/kg
PIC(ip) efficacy % ([2]; mice, dose 120 mg/kg): 120 (16.6%)

NC(=O)O[C@@H]1CCc2cccc(Cl)c2[C@@H]1O [Example 1, (1S, 2R)-8-chloro-1-hydroxy-1,2,3,4-tetrahydronaphthalen-2-yl carbamate]
response vs control in vivo at 50 mg/kg [1]: 74.9%
ED50 (ICR mice on hot plate): 101 mg/kg
ED50 ([2]; Mus musculus, ip, read-out: PIC(ip) ED50): 23.7 mg/kg
